Data as given in publication PMC11233931, “Remodeling tumor‐associated macrophage for anti‐cancer effects by rational design of irreversible inhibition of mitogen‐activated protein kinase‐activated protein kinase 2” (MedComm, 2024).

What was measured:
Test in all cases: Eurofins kinase selectivity profile against 380 other human recombinant kinases (Table S2)
Assay type in all cases: biochemical
[1] = molecular target: T1, 380 human recombinant protein kinases (Homo sapiens, UniProt P49674); conditions: CK1ε(h), read-out: Inhibition rate
T1 construct: purchased Eurofins (Celle Lévescault)
In short: (§1)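 The inhibitor was sent to a contract lab and screened at various concentrations against 380 human recombinant protein kinases. This served as a counter-screen for MK2 specificity.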

[2] = molecular target: T2, 380 human recombinant protein kinases (Homo sapiens, UniProt Q9NZJ5); conditions: PEK(h), read-out: Inhibition rate
T2 construct: purchased Eurofins (Celle Lévescault)
T2 sequence (Q9NZJ5 30-1116): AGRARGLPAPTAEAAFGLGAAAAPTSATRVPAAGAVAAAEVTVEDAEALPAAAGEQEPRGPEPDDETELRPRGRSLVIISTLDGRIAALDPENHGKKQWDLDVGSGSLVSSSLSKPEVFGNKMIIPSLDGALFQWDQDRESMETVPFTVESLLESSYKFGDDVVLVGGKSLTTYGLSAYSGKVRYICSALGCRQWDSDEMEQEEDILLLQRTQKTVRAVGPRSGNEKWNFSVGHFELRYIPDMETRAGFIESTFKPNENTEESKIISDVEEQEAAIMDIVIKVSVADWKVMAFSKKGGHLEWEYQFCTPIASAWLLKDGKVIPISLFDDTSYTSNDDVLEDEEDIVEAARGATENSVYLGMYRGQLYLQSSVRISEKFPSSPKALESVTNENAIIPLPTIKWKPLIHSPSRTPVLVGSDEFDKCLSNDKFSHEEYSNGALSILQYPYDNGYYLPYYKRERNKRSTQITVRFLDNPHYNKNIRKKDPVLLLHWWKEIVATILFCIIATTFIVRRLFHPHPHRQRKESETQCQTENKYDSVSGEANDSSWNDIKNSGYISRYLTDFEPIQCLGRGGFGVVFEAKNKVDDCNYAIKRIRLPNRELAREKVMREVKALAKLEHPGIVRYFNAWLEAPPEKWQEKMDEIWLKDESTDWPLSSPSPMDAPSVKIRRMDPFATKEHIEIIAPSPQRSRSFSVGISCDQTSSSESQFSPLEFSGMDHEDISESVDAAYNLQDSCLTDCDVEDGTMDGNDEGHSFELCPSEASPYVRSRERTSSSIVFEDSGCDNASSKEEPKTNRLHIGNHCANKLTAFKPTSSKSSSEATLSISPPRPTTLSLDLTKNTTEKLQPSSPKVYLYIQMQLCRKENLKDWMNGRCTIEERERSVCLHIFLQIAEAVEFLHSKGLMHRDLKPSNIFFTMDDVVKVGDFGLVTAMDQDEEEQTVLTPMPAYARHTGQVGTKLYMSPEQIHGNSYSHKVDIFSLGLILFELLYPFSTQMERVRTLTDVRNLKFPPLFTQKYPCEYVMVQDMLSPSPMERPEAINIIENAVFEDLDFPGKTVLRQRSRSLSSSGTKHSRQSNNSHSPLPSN
In short: as §1

[3] = molecular target: T3, 380 human recombinant protein kinases (Homo sapiens, UniProt Q92630); conditions: DYRK2(h), read-out: Inhibition rate
T3 construct: purchased Eurofins (Celle Lévescault)
T3 sequence (Q92630 1-601): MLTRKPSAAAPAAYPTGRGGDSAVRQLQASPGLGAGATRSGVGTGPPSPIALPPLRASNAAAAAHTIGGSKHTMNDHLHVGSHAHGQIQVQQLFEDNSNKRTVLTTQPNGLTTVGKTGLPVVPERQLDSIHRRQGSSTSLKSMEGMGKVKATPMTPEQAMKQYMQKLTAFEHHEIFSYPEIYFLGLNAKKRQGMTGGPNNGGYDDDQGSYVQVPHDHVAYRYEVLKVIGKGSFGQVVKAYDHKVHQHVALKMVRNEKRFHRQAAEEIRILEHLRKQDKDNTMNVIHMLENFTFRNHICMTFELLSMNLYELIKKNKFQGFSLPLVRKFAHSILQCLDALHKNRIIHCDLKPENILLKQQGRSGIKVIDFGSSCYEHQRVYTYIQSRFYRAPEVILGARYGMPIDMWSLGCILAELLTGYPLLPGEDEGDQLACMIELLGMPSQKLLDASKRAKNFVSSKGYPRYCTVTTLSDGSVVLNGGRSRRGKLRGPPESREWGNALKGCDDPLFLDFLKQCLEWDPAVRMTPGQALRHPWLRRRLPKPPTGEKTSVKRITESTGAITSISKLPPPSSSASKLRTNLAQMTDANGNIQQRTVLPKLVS
In short: as §1

[4] = molecular target: T4, 380 human recombinant protein kinases (Homo sapiens, UniProt P57059); conditions: SIK(h), read-out: Inhibition rate (%)
T4 construct: purchased Eurofins (Celle Lévescault)
In short: as §1

[5] = molecular target: T5, 380 human recombinant protein kinases (Homo sapiens, UniProt Q04912); conditions: Ron(h), read-out: Inhibition rate
T5 construct: purchased Eurofins (Celle Lévescault)
In short: as §1

T1 sequence (P49674 whole entry): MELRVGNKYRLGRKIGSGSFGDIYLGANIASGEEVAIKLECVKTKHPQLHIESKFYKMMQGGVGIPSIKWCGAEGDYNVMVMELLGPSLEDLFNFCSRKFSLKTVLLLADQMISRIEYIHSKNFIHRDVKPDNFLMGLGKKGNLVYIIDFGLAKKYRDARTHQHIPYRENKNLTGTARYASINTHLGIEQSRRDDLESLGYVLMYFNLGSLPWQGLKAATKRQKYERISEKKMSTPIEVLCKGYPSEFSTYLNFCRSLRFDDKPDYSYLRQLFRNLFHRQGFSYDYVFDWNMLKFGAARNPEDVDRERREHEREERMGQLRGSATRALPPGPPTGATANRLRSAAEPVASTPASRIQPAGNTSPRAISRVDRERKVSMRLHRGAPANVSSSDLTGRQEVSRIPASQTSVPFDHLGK
T4 sequence (P57059 whole entry): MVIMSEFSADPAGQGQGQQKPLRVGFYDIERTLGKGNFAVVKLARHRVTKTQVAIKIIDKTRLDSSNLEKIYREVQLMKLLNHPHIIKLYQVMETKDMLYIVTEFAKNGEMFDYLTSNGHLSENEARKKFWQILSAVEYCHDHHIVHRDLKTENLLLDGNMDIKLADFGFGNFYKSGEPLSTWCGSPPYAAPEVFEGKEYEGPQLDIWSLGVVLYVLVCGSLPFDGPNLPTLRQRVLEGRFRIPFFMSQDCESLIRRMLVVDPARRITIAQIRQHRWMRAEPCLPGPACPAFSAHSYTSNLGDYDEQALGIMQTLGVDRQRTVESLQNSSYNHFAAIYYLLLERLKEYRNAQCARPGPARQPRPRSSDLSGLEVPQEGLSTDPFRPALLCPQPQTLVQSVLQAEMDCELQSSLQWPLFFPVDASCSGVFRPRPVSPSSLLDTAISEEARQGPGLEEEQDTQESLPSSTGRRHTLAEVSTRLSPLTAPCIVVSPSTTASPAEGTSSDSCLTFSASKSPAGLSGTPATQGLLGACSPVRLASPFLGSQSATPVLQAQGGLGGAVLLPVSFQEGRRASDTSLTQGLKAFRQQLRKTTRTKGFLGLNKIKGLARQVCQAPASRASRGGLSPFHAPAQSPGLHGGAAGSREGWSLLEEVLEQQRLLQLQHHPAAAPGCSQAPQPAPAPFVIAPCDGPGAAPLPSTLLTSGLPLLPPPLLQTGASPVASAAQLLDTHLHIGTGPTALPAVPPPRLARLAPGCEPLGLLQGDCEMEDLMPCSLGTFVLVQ
T5 sequence (Q04912 25-1400): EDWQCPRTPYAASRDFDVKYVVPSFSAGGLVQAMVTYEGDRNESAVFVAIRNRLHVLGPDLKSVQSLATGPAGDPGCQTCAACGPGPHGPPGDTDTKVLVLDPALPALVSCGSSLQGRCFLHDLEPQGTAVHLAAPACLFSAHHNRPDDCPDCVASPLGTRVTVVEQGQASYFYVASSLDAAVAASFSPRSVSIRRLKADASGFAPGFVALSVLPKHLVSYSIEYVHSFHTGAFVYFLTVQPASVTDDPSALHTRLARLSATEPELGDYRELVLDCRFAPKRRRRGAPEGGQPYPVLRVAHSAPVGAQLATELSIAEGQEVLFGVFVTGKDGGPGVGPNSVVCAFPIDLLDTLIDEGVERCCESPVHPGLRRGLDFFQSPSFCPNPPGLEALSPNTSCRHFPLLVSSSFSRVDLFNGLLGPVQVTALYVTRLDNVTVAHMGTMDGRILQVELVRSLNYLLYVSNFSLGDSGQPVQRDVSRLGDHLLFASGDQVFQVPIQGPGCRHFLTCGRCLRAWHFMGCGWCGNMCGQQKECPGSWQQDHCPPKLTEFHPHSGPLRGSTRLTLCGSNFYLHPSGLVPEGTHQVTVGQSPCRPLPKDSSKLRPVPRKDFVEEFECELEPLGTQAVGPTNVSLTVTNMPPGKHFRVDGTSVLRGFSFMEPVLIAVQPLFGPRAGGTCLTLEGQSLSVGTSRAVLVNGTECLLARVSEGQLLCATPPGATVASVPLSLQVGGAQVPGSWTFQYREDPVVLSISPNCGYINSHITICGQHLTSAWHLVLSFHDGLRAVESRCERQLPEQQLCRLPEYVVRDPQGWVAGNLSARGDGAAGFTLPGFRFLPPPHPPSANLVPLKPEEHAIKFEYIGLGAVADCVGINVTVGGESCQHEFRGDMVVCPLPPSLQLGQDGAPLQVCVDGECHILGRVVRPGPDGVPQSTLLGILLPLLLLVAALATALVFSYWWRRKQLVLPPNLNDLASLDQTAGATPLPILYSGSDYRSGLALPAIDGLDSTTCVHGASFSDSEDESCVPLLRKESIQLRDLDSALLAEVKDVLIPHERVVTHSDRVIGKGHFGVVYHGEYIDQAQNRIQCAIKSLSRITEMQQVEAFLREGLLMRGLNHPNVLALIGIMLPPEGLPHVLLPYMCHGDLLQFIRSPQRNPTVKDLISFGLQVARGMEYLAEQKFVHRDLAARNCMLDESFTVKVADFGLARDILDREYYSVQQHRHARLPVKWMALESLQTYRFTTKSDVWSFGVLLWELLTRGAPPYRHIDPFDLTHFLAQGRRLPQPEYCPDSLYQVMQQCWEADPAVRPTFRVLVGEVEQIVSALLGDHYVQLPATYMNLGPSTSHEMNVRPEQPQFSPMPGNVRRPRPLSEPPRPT

C=CC(=O)Nc1cc(-c2cc(-c3cc4c([nH]3)CCNC4=O)ccn2)ccc1OC(F)(F)F [compound 11] gave an inhibition at 0.01 µM ([1]; 10 nM) of -5%, an inhibition at 0.1 µM ([1]; 100 nM) of 4% and an inhibition at 1 µM ([1]; 1000 nM) of 34%. For the same compound, the inhibition at 0.01 µM ([2]; 10 nM) was -1%, the inhibition at 0.1 µM ([2]; 100 nM) was -9% and the inhibition at 1 µM ([2]; 1000 nM) was 2%. It also gave an inhibition at 0.01 µM ([3]; 10 nM) of 16%, an inhibition at 0.1 µM ([3]; 100 nM) of 67% and an inhibition at 1 µM ([3]; 1000 nM) of 98%. For the same compound, the inhibition at 0.01 µM ([4]; 10 nM) was 2%, the inhibition at 0.1 µM ([4]; 100 nM) was 4% and the inhibition at 1 µM ([4]; 1000 nM) was -3%. It also gave an inhibition at 0.01 µM ([5]; 10 nM) of -4%, an inhibition at 0.1 µM ([5]; 100 nM) of 26% and an inhibition at 1 µM ([5]; 1000 nM) of 77%.
